Source: US11046680B1, “Heteroaryl-substituted triazoles as APJ receptor agonists” (priority 2016, dated 2021)

biological target: human APJ receptor (Homo sapiens (Human), UniProt P35414); test: biochemical; type: biochemical; details: [35S]GTPγS binding, CHO membranes expressing human APJ receptor; read-out: Activity hAPJ SPA EC50 IP
Description: The human APJ receptor was cloned by polymerase chain reaction and the gene encoding the receptor was subcloned in pFLAG-CMV™-3 expression vector (Sigma, Saint Louis, Mo. USA) in-house at Amgen. A GTPγS binding assay was performed on membranes prepared from CHO cells stably expressing human APJ receptor. The optimum experimental conditions for the concentrations of GDP, MgCl2, and NaCl in the assay buffer were initially determined. […] Incubation was at RT for 90 min and the microplate was read using a ViewLux™ ultra HTS Microplate Imager (PerkinElmer, Inc.).

Chain of human APJ receptor (P35414 whole entry): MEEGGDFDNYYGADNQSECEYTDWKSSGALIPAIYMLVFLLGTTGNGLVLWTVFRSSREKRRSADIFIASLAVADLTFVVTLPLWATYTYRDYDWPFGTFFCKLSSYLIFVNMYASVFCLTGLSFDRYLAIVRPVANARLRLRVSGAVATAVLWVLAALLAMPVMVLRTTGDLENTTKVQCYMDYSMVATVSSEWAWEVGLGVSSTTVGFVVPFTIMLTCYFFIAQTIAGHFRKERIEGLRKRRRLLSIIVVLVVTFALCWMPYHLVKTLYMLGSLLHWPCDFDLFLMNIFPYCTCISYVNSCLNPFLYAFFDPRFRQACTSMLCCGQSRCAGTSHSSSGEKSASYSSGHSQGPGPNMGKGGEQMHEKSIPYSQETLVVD

Molecule | EC50
COc1cccc(OC)c1-n1c(NS(=O)(=O)CCc2ccc(F)cc2C#N)nnc1-c1nc(C2CC2)cs1 [Example 155.0, 2-(2-cyano-4-fluorophenyl)-N-(5-(4-cyclopropylthiazol-2-yl)-4-(2,6-dimethoxyphenyl)-4H-1,2,4-triazol-3-yl)ethanesulfonamide] | 10 nM
Cc1cnc([C@@H](C)[C@H](C)S(=O)(=O)Nc2nnc(-c3ccn(C)n3)n2-c2c(F)cccc2F)nc1 [Example 226.0, (2S,3R)-N-(4-(2,6-difluorophenyl)-5-(1-methyl-1H-pyrazol-3-yl)-4H-1,2,4-triazol-3-yl)-3-(5-methyl-2-pyrimidinyl)-2-butanesulfonamide] | 11 nM
COCC1(n2c(NS(=O)(=O)[C@@H](C)[C@H](OC)c3ncc(Cl)cn3)nnc2-c2n[nH]c3ccccc23)CC1 [Example 495.0, (1R,2S)-1-(5-chloro-2-pyrimidinyl)-N-(5-(1H-indazol-3-yl)-4-(1-(methoxymethyl)cyclopropyl)-4H-1,2,4-triazol-3-yl)-1-methoxy-2-propanesulfonamide] | 13 nM
(R)-N-(4-(2,6-dimethoxyphenyl)-5-(1H-pyrazol-3-yl)-4H-1,2,4-triazol-3-yl)-1-(5-fluoropyrimidin-2-yl)propane-2-sulfonamide and (S)-N-(4-(2,6-dimethoxyphenyl)-5-(1H-pyrazol-3-yl)-4H-1,2,4-triazol-3-yl)-1-(5-fluoropyrimidin-2-yl)propane-2-sulfonamide [Example 71.0] | 41 nM
COc1ncnc(OC)c1-n1c(NS(=O)(=O)[C@@H](C)[C@H](OC)c2ccc(Cl)cn2)nnc1-c1ccn(C)n1 (single isomer, unassigned) [Example 288.0] | 1.3 nM
COc1cccc(OC)c1-n1c(NS(=O)(=O)[C@H](C)[C@@H](OC)c2ccc(C#N)cc2C#N)nnc1-c1ccn(C)n1 (single isomer, unassigned) [Example 266.0, (1S,2R)-1-(2,4-dicyanophenyl)-N-(4-(2,6-dimethoxyphenyl)-5-(1-methyl-1H-pyrazol-3-yl)-4H-1,2,4-triazol-3-yl)-1-methoxy-2-propanesulfonamide or (1R,2S)-1-(2,4-dicyanophenyl)-N-(4-(2,6-dimethoxyphenyl)-5-(1-methyl-H-pyrazol-3-yl)-4H-1,2,4-triazol-3-yl)-1-methoxy-2-propanesulfonamide] | 0.4 nM
COc1ccc(C(=O)O)cc1-n1c(NS(=O)(=O)Cc2ccc(Cl)cc2)nnc1-c1cccs1 [Example 384.0, 3-(3-((4-Chlorophenyl)methylsulfonamido)-5-(thiophen-2-yl)-4H-1,2,4-triazol-4-yl)-4-methoxybenzoic acid] | > 12500 nM
COc1cccc(OC)c1-n1c(NS(=O)(=O)[C@@H](C)[C@H](OC)c2ncc(Cl)cn2)nnc1-c1cnn2c1CCC2 [Example 488.0, (1R,2S)-1-(5-chloropyrimidin-2-yl)-N-(5-(5,6-dihydro-4H-pyrrolo[1,2-b]pyrazol-3-yl)-4-(2,6-dimethoxyphenyl)-4H-1,2,4-triazol-3-yl)-1-methoxypropane-2-sulfonamide] | 0.2 nM
COc1cncc(-c2nnc(NS(=O)(=O)[C@@H](C)[C@H](C)c3ncc(C)cn3)n2-c2c(OC)cccc2OC)n1 [Example 202.0, (2S,3R)-N-(4-(2,6-dimethoxyphenyl)-5-(6-methoxy-2-pyrazinyl)-4H-1,2,4-triazol-3-yl)-3-(5-methyl-2-pyrimidinyl)-2-butanesulfonamide] | 2.9 nM
(R)-N-(4-(2,6-dimethoxyphenyl)-5-(pyrimidin-5-yl)-4H-1,2,4-triazol-3-yl)-1-(5-fluoropyrimidin-2-yl)propane-2-sulfonamide and (S)-N-(4-(2,6-dimethoxyphenyl)-5-(pyrimidin-5-yl)-4H-1,2,4-triazol-3-yl)-1-(5-fluoropyrimidin-2-yl)propane-2-sulfonamide [Example 48.0] | 150 nM
COc1ccccc1-n1c(NS(=O)(=O)CCc2ccc(F)cc2)nnc1-c1cccs1 [Example 359.0, 2-(4-Fluorophenyl)-N-(4-(2-methoxyphenyl)-5-(thiophen-2-yl)-4H-1,2,4-triazol-3-yl)ethanesulfonamide] | 143 nM
COc1cccc(OC)c1-n1c(NS(=O)(=O)CCN2C(=O)N(C)CC[C@@H]2C)nnc1-c1nc(C)cs1 [Example 13.0, N-(4-(2,6-dimethoxyphenyl)-5-(4-methyl-1,3-thiazol-2-yl)-4H-1,2,4-triazol-3-yl)-2-((6S)-3,6-dimethyl-2-oxotetrahydro-1(2H)-pyrimidinyl)ethanesulfonamide] | 2.9 nM
COc1ccc(N2CCC2=O)cc1-n1c(NS(=O)(=O)CCc2ccc(F)cc2C#N)nnc1-c1cccs1 [Example 132.0, 2-(2-Cyano-4-fluorophenyl)-N-(4-(2-methoxy-5-(2-oxoazetidin-1-yl)phenyl)-5-(thiophen-2-yl)-4H-1,2,4-triazol-3-yl)ethanesulfonamide] | 0.24 nM
COc1cccc(OC)c1-n1c(NS(=O)(=O)[C@H](C)Cc2ccc(C#N)cn2)nnc1-c1nc(C)cs1 (single isomer, unassigned) [Example 12.0, (2R)-1-(5-Cyano-2-pyridinyl)-N-(4-(2,6-dimethoxyphenyl)-5-(4-methyl-1,3-thiazol-2-yl)-4H-1,2,4-triazol-3-yl)-2-propanesulfonamide or (2S)-1-(5-cyano-2-pyridinyl)-N-(4-(2,6-dimethoxyphenyl)-5-(4-methyl-1,3-thiazol-2-yl)-4H-1,2,4-triazol-3-yl)-2-propanesulfonamide] | 9.4 nM
CCc1onc(-c2nnc(NS(=O)(=O)[C@@H](C)[C@H](OC)c3ncc(Cl)cn3)n2-c2c(OC)cccc2OC)c1C [Example 519.0] | 0.32 nM
Cc1cnc([C@@H](C)[C@H](C)S(=O)(=O)Nc2nnc(-c3ccn(C)n3)n2-c2c(F)cccc2F)cn1 [Example 231.0, (2S,3R)-N-(4-(2,6-difluorophenyl)-5-(1-methyl-1H-pyrazol-3-yl)-4H-1,2,4-triazol-3-yl)-3-(5-methyl-2-pyrazinyl)-2-butanesulfonamide] | 46 nM
COc1cccc(OC)c1-n1c(NS(=O)(=O)[C@@H](C)[C@H](OC)c2ncc(C)cn2)nnc1-c1noc2ccccc12 [Example 87.0, (1R,2S)-N-(5-(benzo[d]isoxazol-3-yl)-4-(2,6-dimethoxyphenyl)-4H-1,2,4-triazol-3-yl)-1-methoxy-1-(5-methylpyrimidin-2-yl)propane-2-sulfonamide] | 82 nM
CO[C@H](c1ncc(Cl)cn1)[C@H](C)S(=O)(=O)Nc1nnc(-c2nn(C)c3c2CCCC3)n1C(C)C [Example 512.0, (1R,2S)-1-(5-chloropyrimidin-2-yl)-N-(4-isopropyl-5-(1-methyl-4,5,6,7-tetrahydro-1H-indazol-3-yl)-4H-1,2,4-triazol-3-yl)-1-methoxypropane-2-sulfonamide] | 130 nM
COc1cccc(OC)c1-n1c(NS(=O)(=O)[C@H](C)[C@H](O)c2ncc(C)cn2)nnc1-c1nc(C)cs1 (single isomer, unassigned) [Example 314.0, (1R,2R)-N-(4-(2,6-dimethoxyphenyl)-5-(4-methylthiazol-2-yl)-4H-1,2,4-triazol-3-yl)-1-hydroxy-1-(5-methylpyrimidin-2-yl)propane-2-sulfonamide or (1S,2S)-N-(4-(2,6-dimethoxyphenyl)-5-(4-methylthiazol-2-yl)-4H-1,2,4-triazol-3-yl)-1-hydroxy-1-(5-methylpyrimidin-2-yl)propane-2-sulfonamide] | 14 nM
COCC1(n2c(NS(=O)(=O)[C@@H](C)[C@H](OC)c3ncc(Cl)cn3)nnc2-c2n[nH]c3c2CCCC3)CC1 [Example 491.0, (1R,2S)-1-(5-chloropyrimidin-2-yl)-1-methoxy-N-(4-(1-(methoxymethyl)cyclopropyl)-5-(4,5,6,7-tetrahydro-1H-indazol-3-yl)-4H-1,2,4-triazol-3-yl)propane-2-sulfonamide] | 15 nM
COc1cccc(OC)c1-n1c(NS(=O)(=O)[C@H](C)Cc2ncc(F)cn2)nnc1-c1ccn(C)c1 (single isomer, unassigned) [Example 34.0, (R)-N-(4-(2,6-dimethoxyphenyl)-5-(1-methyl-1H-pyrrol-3-yl)-4H-1,2,4-triazol-3-yl)-1-(5-fluoropyrimidin-2-yl)propane-2-sulfonamide or (S)-N-(4-(2,6-dimethoxyphenyl)-5-(1-methyl-1H-pyrrol-3-yl)-4H-1,2,4-triazol-3-yl)-1-(5-fluoropyrimidin-2-yl)propane-2-sulfonamide] | 4.5 nM
COc1cccc(OC)c1-n1c(NS(=O)(=O)[C@@H](C)Cc2ncc(C)cn2)nnc1-c1nc(C)cs1 (single isomer, unassigned) [Example 8.0, (2S)-N-(4-(2,6-dimethoxyphenyl)-5-(4-methyl-1,3-thiazol-2-yl)-4H-1,2,4-triazol-3-yl)-1-(5-methyl-2-pyrimidinyl)-2-propanesulfonamide or (2R)-N-(4-(2,6-dimethoxyphenyl)-5-(4-methyl-1,3-thiazol-2-yl)-4H-1,2,4-triazol-3-yl)-1-(5-methyl-2-pyrimidinyl)-2-propanesulfonamide] | 0.75 nM
COc1cccc(OC)c1-n1c(NS(=O)(=O)[C@@H](C)[C@H](OC)c2ncc(C)cn2)nnc1-c1ccn(C)n1 [Example 200.0, (1R,2S)-N-(4-(2,6-dimethoxyphenyl)-5-(1-methyl-1H-pyrazol-3-yl)-4H-1,2,4-triazol-3-yl)-1-methoxy-1-(5-methyl-2-pyrimidinyl)-2-propanesulfonamide] | 0.79 nM
COc1cccc(OC)c1-n1c(NS(=O)(=O)[C@@H](C)[C@H](C)c2ncc(F)cn2)nnc1-c1cc(C)[nH]n1 [Example 268.0, (2S,3R)-N-(4-(2,6-dimethoxyphenyl)-5-(5-methyl-1H-pyrazol-3-yl)-4H-1,2,4-triazol-3-yl)-3-(5-fluoro-2-pyrimidinyl)-2-butanesulfonamide] | 0.68 nM
